# Structures can show the parent of a compound that is named as a salt.
# Experiments:
# human CD38 = human CD38 (Homo sapiens (Human), UniProt P28907); test: NAD+ cyclase activity assay with human recombinant CD38 protein; type: biochemical; settings: 1.9 nM human CD38, 15.8 μM e-NAD substrate, fluorescence read-out
# Experimental: (§1) Example 5: NAD^+ Cydase Activity Assay with Human or Mouse Recombinant CD38 Protein
# (§2) The following assay was used to determine the ability of compounds of the invention to inhibit the hydrolysis of NAD^+ by the human or mouse enzyme, CD38.
# (§3) Reaction buffer: 40 mM HEPES/NaOH pH 7.5, 250 mM sucrose, 0.01% Tween
# (§4) Final concentrations: 0.6 nM mouse CD38 (4947-AC, Bio-Techne GmbH) 1.9 nM human CD38 (AVI2404, Bio-Techne GmbH)
# (§5) Substrate: 15.8 μM Nicotinamide 1,N6-ethenoadenine dinucleotide (E-NAD)
# (§6) Read-out: Fluorescence intensity (extinction 300 nm/emission 410 nm)
# (§7) Required reaction buffer, required CD38 concentration in reaction buffer and required e-NAD concentration in reaction buffer were prepared. Thereafter, 8 μL of CD38 in reaction buffer were added to High Control and compound concentration wells in 384 well plate (Corning #4514, 384 well, nonbinding surface, low volume, round bottom) and 8 μL of reaction buffer to Low Control. Compound dilutions were transferred via pintool technology that transfers 42.5 nL compound dilutions (12-point dose-response with factor three dilutions in 100% DMSO) well-to-well. Plate was subsequently shaken for 15 s at 1450 rpm and sealed for incubation for 30 min at room temperature. Thereafter, 2 μL of e-NAD in reaction buffer were added with Integra Voyager. After shaking for 15 s at 1450 rpm, plate was sealed, and assay signal was measured continuously with PHERAstar® fluorescence intensity module (extinction 300 nm/emission 410 nm).
# (§8) Dose-response curves were constructed using twelve-point factor three dilutions in triplicates per plate. High control (full enzyme activity) was set to assay signal of CD38 and e-NAD in presence of vehicle (DMSO) and Low control (full enzyme inhibition) was set to assay signal of e-NAD and vehicle (DMSO) in absence of CD38. For data analysis, fluorescent signal of traces corresponding to each compound concentration and High and Low control was monitored over time. Each run, High Control (full enzyme activity) was fitted to Linear equation via GraphPad Prism to determine CD38 activity from the slope and determine the time interval of linear phase of reaction to account for minor fluctuations. Thereafter, slopes of all compound concentrations were determined via fitting to same linear equation (GraphPad Prism) over the same time interval as determined for High control. Percentage inhibition was calculated via normalization to High and Low Control via the equation: %−inhibition=100*(1−((Sample−Low control)/(High control−Low control))) Half maximal inhibitory concentration (IC50) values are yielded from the inflection point of the corresponding curve by fitting of resulting percentage inhibition values to standard equation (4 Parameter Logistic Model or Sigmoidal Dose-Response Model) via Excel Fit. Unless otherwise stated, fitting of curves was fixed to 100%-inhibition and unlocked for 0%-inhibition.
# mouse CD38 = mouse CD38 (Mus musculus (Mouse), UniProt P56528); test: NAD+ cyclase activity assay with mouse recombinant CD38 protein; type: biochemical; settings: 0.6 nM mouse CD38, 15.8 μM e-NAD substrate, fluorescence read-out
# Experimental: as §1, §2, §3, §4, §5, §6, §7, §8
# Chain of mouse CD38 (P56528 whole entry): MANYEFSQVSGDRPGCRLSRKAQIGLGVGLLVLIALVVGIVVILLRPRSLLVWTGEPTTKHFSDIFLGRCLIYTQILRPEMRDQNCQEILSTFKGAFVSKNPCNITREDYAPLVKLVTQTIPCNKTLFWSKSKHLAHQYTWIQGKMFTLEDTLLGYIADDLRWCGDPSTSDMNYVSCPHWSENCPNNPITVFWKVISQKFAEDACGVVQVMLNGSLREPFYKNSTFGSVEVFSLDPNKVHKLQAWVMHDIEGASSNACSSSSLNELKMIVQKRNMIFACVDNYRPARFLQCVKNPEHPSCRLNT
# Chain of human CD38 (P28907 whole entry): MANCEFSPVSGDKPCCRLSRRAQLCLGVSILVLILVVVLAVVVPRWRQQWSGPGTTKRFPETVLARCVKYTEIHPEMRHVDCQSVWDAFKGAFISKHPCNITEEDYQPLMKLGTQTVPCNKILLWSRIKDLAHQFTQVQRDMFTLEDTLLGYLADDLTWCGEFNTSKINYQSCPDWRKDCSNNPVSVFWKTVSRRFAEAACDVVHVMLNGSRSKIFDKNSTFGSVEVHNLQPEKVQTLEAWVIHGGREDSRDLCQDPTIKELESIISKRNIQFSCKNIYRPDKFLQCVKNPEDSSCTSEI
smiles,measurement,setting,value
"Cc1cc(C(=O)N[C@@H]2CCS(=O)(=O)C2)nc(-n2ccnc2)c1 [Compound 86A, (R)—N-(1,1-Dioxidotetrahydrothiophen-3-yl)-6-(1H-imidazol-1-yl)-4-methylpicolinamide]",IC50,human CD38,< 30 nM
same,IC50,mouse CD38,1 to 10 nM
"Cc1cc(C(=O)NC2CCN(C(=O)CN3CCOCC3)CC2)nc(-n2ccnc2)c1 [Compound 19A, 6-(1H-Imidazol-1-yl)-4-methyl-N-(1-(2-morpholinoacetyl)piperidin-4-yl)picolinamide]",IC50,human CD38,30 to 100 nM
same,IC50,mouse CD38,1 to 10 nM
"Cc1cc(C(=O)N[C@@H]2CCCN(C3COC3)C2)nc(-n2ccnc2)c1 [Compound 83A, (R)-6-(1H-Imidazol-1-yl)-4-methyl-N-(1-(oxetan-3-yl)piperidin-3-yl)picolinamide]",IC50,human CD38,> 1000 nM
same,IC50,mouse CD38,10 to 100 nM
"Cc1cc(C(=O)N[C@@H]2CCCNC2)nc(-n2ccnc2)c1 [Compound 51A, (R)-6-(1H-Imidazol-1-yl)-4-methyl-N-(piperidin-3-yl)picolinamide dihydrochloride]",IC50,human CD38,> 1000 nM
same,IC50,mouse CD38,> 100 nM
"Cc1cc(C(=O)NC2CCN(C(=O)N(C)C)CC2)nc(-n2ccnc2)c1 [Compound 21A, N-(1-(Dimethylcarbamoyl)piperidin-4-yl)-6-(1H-imidazol-1-yl)-4-methylpicolinamide]",IC50,human CD38,30 to 100 nM
same,IC50,mouse CD38,1 to 10 nM
"O=C(N[C@@H]1CCCOC1)c1ccnc(-n2ccnc2)n1 [Compound 80A, (R)-2-(1H-Imidazol-1-yl)-N-(tetrahydro-2H-pyran-3-yl)pyrimidine-4-carboxamide]",IC50,human CD38,< 30 nM
same,IC50,mouse CD38,1 to 10 nM
"Cc1cc(C(=O)N[C@@H]2CCCN(C(=O)OC(C)(C)C)C2)nc(-n2ccnc2)c1 [Compound 49A, tert-Butyl (R)-3-(6-(1H-imidazol-1-yl)-4-methylpicolinamido)piperidine-1-carboxylate]",IC50,human CD38,30 to 100 nM
same,IC50,mouse CD38,1 to 10 nM
"Cc1cc(C(=O)NC2CCN(S(=O)(=O)C3CC3)CC2)nc(-n2ccnc2)c1 [Compound 3A, N-(1-(cyclopropylsulfonyl)piperidin-4-yl)-6-(1H-imidazol-1-yl)-4-methylpicolinamide]",IC50,human CD38,< 30 nM
same,IC50,mouse CD38,1 to 10 nM
"Cc1cc(C(=O)NC2CCN(S(C)(=O)=O)CC2)nc(-n2ccnc2)c1 [Compound 1A, 6-(1H-Imidazol-1-yl)-4-methyl-N-(1-(methylsulfonyl)piperidin-4-yl)picolinamide]",IC50,human CD38,30 to 100 nM
same,IC50,mouse CD38,1 to 10 nM
"Cc1cc(C(=O)N[C@@H]2CCS(=O)(=O)C2)nc(-n2ccnc2)n1 [Compound 68A, (R)—N-(1,1-Dioxidotetrahydrothiophen-3-yl)-2-(1H-imidazol-1-yl)-6-methylpyrimidine-4-carboxamide]",IC50,human CD38,< 30 nM
same,IC50,mouse CD38,< 1 nM
"Cc1cc(C(=O)NC2CCC2)nc(-n2ccnc2)c1 [Compound 12A, N-Cyclobutyl-6-(1H-imidazol-1-yl)-4-methylpicolinamide]",IC50,human CD38,30 to 100 nM
same,IC50,mouse CD38,1 to 10 nM
"Cc1cc(C(=O)N[C@H]2CCCN(S(C)(=O)=O)C2)nc(-n2ccnc2)c1 [Compound 50A, (S)-6-(1H-Imidazol-1-yl)-4-methyl-N-(1-(methylsulfonyl)piperidin-3-yl)picolinamide]",IC50,human CD38,100 to 1000 nM
same,IC50,mouse CD38,1 to 10 nM
"Cc1cc(C(=O)NC2CCC(C)(C)OC2)nc(-n2ccnc2)c1 (stereo not shown) [Compound 29A, N-(6,6-Dimethyltetrahydro-2H-pyran-3-yl)-6-(1H-imidazol-1-yl)-4-methylpicolinamide]",IC50,human CD38,30 to 100 nM
same,IC50,mouse CD38,1 to 10 nM
"Cc1cc(C(=O)N[C@H]2CCCN(C(=O)OC(C)(C)C)C2)nc(-n2ccnc2)c1 [Compound 47A, tert-Butyl (S)-3-(6-(1H-imidazol-1-yl)-4-methylpicolinamido)piperidine-1-carboxylate]",IC50,human CD38,100 to 1000 nM
same,IC50,mouse CD38,1 to 10 nM
"Cc1cc(C(=O)N[C@@H]2CCCN(S(C)(=O)=O)C2)nc(-n2ccnc2)c1 [Compound 54A, (R)-6-(1H-Imidazol-1-yl)-4-methyl-N-(1-(methylsulfonyl)piperidin-3-yl)picolinamide]",IC50,human CD38,30 to 100 nM
same,IC50,mouse CD38,1 to 10 nM
"Cc1cc(C(=O)NC2CCOCC2(C)C)nc(-n2ccnc2)c1 (stereo not shown) [Compound 27A, N-(3,3-Dimethyltetrahydro-2H-pyran-4-yl)-6-(1H-imidazol-1-yl)-4-methylpicolinamide]",IC50,human CD38,100 to 1000 nM
same,IC50,mouse CD38,10 to 100 nM
"COc1cc(C(=O)NC2CCN(S(C)(=O)=O)CC2)nc(-n2ccnc2)c1 [Compound 15A, 6-(1H-Imidazol-1-yl)-4-methoxy-N-(1-(methylsulfonyl)piperidin-4-yl)picolinamide]",IC50,human CD38,30 to 100 nM
same,IC50,mouse CD38,1 to 10 nM
"Cc1cc(C(=O)N[C@@H]2CCCN(C)C2=O)nc(-n2ccnc2)c1 [Compound 56A, (R)-6-(1H-Imidazol-1-yl)-4-methyl-N-(1-methyl-2-oxopiperidin-3-yl)picolinamide]",IC50,human CD38,> 1000 nM
same,IC50,mouse CD38,> 100 nM
"Cc1cc(C(=O)N[C@@H]2CCC(=O)NC2=O)nc(-n2ccnc2)c1 [Compound 63A, (R)—N-(2,6-Dioxopiperidin-3-yl)-6-(1H-imidazol-1-yl)-4-methylpicolinamide]",IC50,human CD38,> 1000 nM
same,IC50,mouse CD38,10 to 100 nM
"Cc1cc(C(=O)N[C@@H]2CCOC2)nc(-n2ccnc2)c1 [Compound 42A, (R)-6-(1H-Imidazol-1-yl)-4-methyl-N-(tetrahydrofuran-3-yl)picolinamide]",IC50,human CD38,30 to 100 nM
same,IC50,mouse CD38,1 to 10 nM
